# Test results: patent US10001470B2, “Method, system and composition for optically inducing cardiomyocyte contraction” (Sanford-Burnham Medical Research Institute, priority 2009, dated 2018)
# Key:
# [1] = tested on: Neonatal Rat Ventricular Myocytes (NRVMs); test: Calcium transient (Tdecay) in single-pulse stimulated NRVMs, CTIC; format: cell-based; details: for Tdecay Mean / Tdecay Diff. (%) control vs compound / Tdecay Difference (ms) control vs compound: single pulse; for Tdecay Mean: average signal of three wells
# Source text: (§1) A Calcium Transient Image Cytometer (CTIC) instrument and software have been developed at Vala Sciences to analyze calcium transient and other fluorescent read out in stimulated cardiomyocytes which is utilized in the Examples described herein. The instrument consists of a Nikon Eclipse™ microscope with a 20× objective, a Cohu 6612-3000 monochrome ½″ digital/analog progressive scan camera (which operates at 30 or 60 Hz), a Pentium™ 4-based PC, and a 200 gigabyte external “firewire” hard drive.
# Platinum electrodes are mounted on a micromanipulator to stimulate cardiomyocytes cultured in a 96-well plate. The plate is placed, without a lid, on the stage of a robotic inverted microscope outfitted for fluorescence microscopy. The mechanical stage of the microscope moves to bring each well into position and the micromanipulator lowers to the pair of electrodes to bring them into contact with the culture medium of the well that is being analyzed. The voltage used to stimulate the cells is on the order of 20 to 30 volts, utilizing square wave pulses of 5 to 20 msec. A “polarity reverser” is included in the circuit to maintain electrode performance and effective stimulation of cardiac myocytes. FIG. 3 describes the prototype setting. After positioned on the well, the electrodes move to the “down” position, the instrument autofocuses on cells nuclei (blue channel), stimulates the cells (single stimulus or at 1 to 3 Hz for 3 to 10 seconds) and acquires the fluo-4 channel (green channel). Subsequently, the electrodes move to the “up” position and the instrument moves to another well, repeating the entire process. The time required to sample each well will range from 20 to 30 seconds, depending on the number of frames that are collected and the rate of stimulation.
# The instrument is incorporated in a 37° C. chamber with CO2 and O2 percentage controllers, allowing the execution of experiment in approximate physiological conditions. The calcium analysis software, developed at Vala Sciences as a plug-in for Vala's CyteSeer High Content Analysis™ software, converts the fluo-4 and Hoechst 33342 fluorescence signals in a binary mask, to distinguish portions of the images corresponding to single cells. Then, comparing the images acquired during the stimulation, the software reports the calcium variation for the well or for every single cell and the average value for the well. Traces can be filtered to remove low responders or kinetics with specific characteristics.
# A number of kinetic parameters can be automatically derived either for the nuclear, cytoplasm or the whole cell compartments: The Full Width at Half Maximum (FWHM), which is the time required for progression from the 50% point on the upstroke to 50% point on the downstroke, TRise, which is the time from 50% point to 100% on the upstroke, and the TDecay, which is the time period from 100% point to 50% point on the decay phase. Other values can be measured, including the time from 75% to 25% in the downstroke (T75-25) and the value at a particular time. Values are measured for single cells in the well and as average of the well.
# The CTIC and calcium recording have been validated also for toxicity-related analysis. In one set of experiments, NRVMs are treated with either sparfloxacin or cisapride. The first one is a fluoroquinolone antibiotic no longer available in the U.S., known to induce QT interval prolongation at high dosage. The second one is a serotonin 5-HT4 receptor agonist, used to cure people with gastro esophageal reflux disease. […] This is a clear hallmark of compounds that predispose to arrhythmia and torsades de pointes.
# Tdecay is indicated for the average signal of three control wells and three compound treated wells. The mean, standard deviation (SD) and percent error is calculated for each group. The difference between the control and the compound groups is also indicated.
# FIGS. 5A and 5B show calcium transient in drug treated NRVMs. […]
# [2] = tested on: Neonatal Rat Ventricular Myocytes (NRVMs); format: cell-based
# Source text: as §1
# Platinum electrodes are mounted on a micromanipulator to stimulate cardiomyocytes cultured in a 96-well plate. The plate is placed, without a lid, on the stage of a robotic inverted microscope outfitted for fluorescence microscopy. The mechanical stage of the microscope moves to bring each well into position and the micromanipulator lowers to the pair of electrodes to bring them into contact with the culture medium of the well that is being analyzed. […]
# The instrument is incorporated in a 37° C. chamber with CO2 and O2 percentage controllers, allowing the execution of experiment in approximate physiological conditions. The calcium analysis software, developed at Vala Sciences as a plug-in for Vala's CyteSeer High Content Analysis™ software, converts the fluo-4 and Hoechst 33342 fluorescence signals in a binary mask, to distinguish portions of the images corresponding to single cells. […]
Substance,Early after depolarization (EAD) ([1]; 1 μM),Effect on Tdecay ([1]; 1 μM),Tdecay Mean ([1]; 1 μM in recording buffer),Tdecay Diff. (%) control vs compound ([1]; 1 μM),Tdecay Difference (ms) control vs compound ([1]; 1 μM),Calcium flux response to continuous stimulation [2],Effect on Tdecay ([1]; 100 μM during the stimulation),Tdecay Mean ([1]; 100 μM in recording buffer),Tdecay Diff. (%) control vs compound ([1]; 100 μM),Tdecay Difference (ms) control vs compound ([1]; 100 μM)
Cisapride,causes early after depolarization (EAD),induces an increase in Tdecay,2145 ms,+129%,+1210 ms,–,–,–,–,–
Sparfloxacin,–,–,–,–,–,irregular calcium flux,clearly doubles the Tdecay,1969 ms,+106%,+1012 ms
